Laboratory results: paper PMC9181899, “Synthesis and Anticancer Properties of New 3-Methylidene-1-sulfonyl-2,3-dihydroquinolin-4(1H)-ones” (Molecules, 2022)

Columns and labels:
HL-60 cells [1] = experiment: Cell proliferation by BrdU incorporation, flow cytometry; format: cell-based; conditions: 1.8 µM
Description: (§1) To evaluate the anticancer potential of 5a, the ability of this compound to inhibit cell proliferation, induce apoptotic cell death, and generate DNA damage was examined by flow cytometry using the ‘Apoptosis, DNA Damage, and Cell Proliferation Kit’ (BD Bioscience). After 24 h treatment with 5a in increasing concentrations, HL-60 cells were exposed to bromodeoxyuridine (BrdU) for additional 8 h. Then, the cells were simultaneously stained with fluorochrome-labeled anti-BrdU, anti-cleaved PARP (Asp214) and anti-H2AX (pS139).
BrdU is an analog of thymidine, and its incorporation into DNA was used as an index of cell proliferation. […] At 1.8 µM concentration, this analog caused a 2.2-fold decrease in BrdU incorporation (Figure 4a).
Cell proliferation, DNA damage, and apoptotic cell death were determined using Apoptosis, DNA Damage, and Cell Proliferation Kit (BD Bioscience, San Jose, CA, USA), according to the manufacturer protocol. Briefly, HL-60 cells were seeded in 6-well plates (4.0 × 10^5 cells/mL) in 2 mL of growth medium and treated with 5a for 24 h. […] Next, the cells were collected by centrifugation (300× g, 5 min), counted, fixed, and permeabilized according to the manufacturer’s instructions. […] After washing, DNA staining with DAPI (1 µg/mL of the staining buffer) was performed, and the cells were analyzed by flow cytometry using CytoFLEX (Beckman Coulter, Inc., Brea, CA, USA).

HL-60 cells [2] = experiment: Apoptosis by cleaved PARP (Asp214) staining, flow cytometry; format: cell-based; conditions: 1.8 µM, 24 h, Figure 3b
Description: as §1
To check whether the cytotoxic effect of 5a was associated with the induction of apoptosis, the pro-apoptotic activity of this compound was investigated. Apoptosis regulation is triggered by the activation of caspases. Caspase-3, an effector caspase, cleaves a number of vital proteins, leading to cell death. The activity of caspase-3 was assessed by flow cytometry using fluorochrome-labeled antibodies recognizing 89 kDa-cleaved PARP fragments released from PARP by caspase-3 in the executive stage of apoptosis.
Cell proliferation, DNA damage, and apoptotic cell death were determined using Apoptosis, DNA Damage, and Cell Proliferation Kit (BD Bioscience, San Jose, CA, USA), according to the manufacturer protocol. Briefly, HL-60 cells were seeded in 6-well plates (4.0 × 10^5 cells/mL) in 2 mL of growth medium and treated with 5a for 24 h. Afterwards, the bromodeoxyuridine (BrdU, 10 µM) was added and the cells were incubated for additional 8 h. Next, the cells were collected by centrifugation (300× g, 5 min), counted, fixed, and permeabilized according to the manufacturer’s instructions. The cells were incubated with DNase (300 µg/mL in PBS) for 1 h at 37 °C and then simultaneously stained with fluorochrome-labeled anti-BrdU, H2AX (pS139), and cleaved PARP (Asp214) antibodies, for 20 min at room temperature. After washing, DNA staining with DAPI (1 µg/mL of the staining buffer) was performed, and the cells were analyzed by flow cytometry using CytoFLEX (Beckman Coulter, Inc., Brea, CA, USA).

HUVEC cells = experiment: MTT in vitro cytotoxicity assay, HUVEC (normal cells); format: cell-based, human; conditions: Homo sapiens, HUVEC, 48 h incubation, mean ± SEM
Description: (§2) The promyelocytic leukemia HL-60 and breast cancer adenocarcinoma MCF-7 cell lines were purchased from the European Collection of Cell Cultures (ECACC). Leukemia cells were cultured in RPMI 1640 plus GlutaMax I medium (Gibco/Life Technologies, Carlsbad, CA, USA). MCF-7 cells were maintained in Minimum Essential Medium Eagle (Sigma Aldrich, St. Louis, MO, USA) and supplemented with 2 mM glutamine and men non-essential amino acid solution (Sigma Aldrich, St. Louis, MO, USA). Both media were supplemented with 10% heat-inactivated fetal bovine serum (Biological Industries, Beit-Haemek, Israel) and antibiotics (100 U/mL penicillin and 100 μg/mL streptomycin) (Sigma-Aldrich, St. Louis, MO, USA). Human umbilical vein endothelial cells (HUVECs) were purchased from the American Type Culture Collection (ATCC). Cells were cultured using EGM-2 Endothelial Medium BulletKit purchased from Lonza (Lonza, Walkersville, MD, USA). Cells were maintained at 37 °C in 5% CO2 atmosphere and grown until 80% confluent.
(§3) The tested compounds were dissolved in sterile dimethyl sulfoxide (DMSO) and further diluted with culture medium. The final concentration of DMSO in cell cultures was less than 0.1% v/v. Controls without and with 0.1% DMSO were performed in each experiment. At the used concentration, DMSO had no effect on the observed parameters.
(§4) The MTT (3-(4,5-dimethylthiazol-2-yl)-2,5-diphenyltetrazolium bromide) assay, which measures the activity of cellular dehydrogenases, was performed according to the Mosmann method. Exponentially growing cells were seeded into 24-well plates at a density of 8 × 10^4 cells/mL and left to grow for 24 h. After 24 h or 48 h of incubation with various concentrations of the tested compounds (dissolved in DMSO and diluted with complete culture medium), cells were incubated with 0.1 mL of MTT solution (5 mg/mL in phosphate buffered saline) for 1.5 h. The metabolically active cells reduced MTT to blue formazan crystals. The plates were centrifuged, and the supernatant was discarded. DMSO (1 mL) was added to each well to dissolve the crystals, whose absorbance was measured at 560 nm using FlexStation 3 Multi-Mode Microplate Reader (Molecular Devices, LLC, San Jose, CA, USA). The untreated cells were used as control. The IC50 values were calculated from the concentration–response curves. The data were expressed as mean ± SEM of three independent experiments.

MCF-7 cells = experiment: MTT in vitro cytotoxicity assay, MCF-7; format: cell-based; conditions: Homo sapiens, MCF7, 48 h incubation, mean ± SEM
Description: as §2, §3, §4

HL-60 cells [3] = experiment: Apoptosis by FITC-Annexin V and PI double-staining, flow cytometry; format: cell-based; conditions: 1.8 µM, 24 h
Description: Pro-apoptotic activity of 5a was also confirmed using FITC-Annexin V and PI double-staining, based on the loss of plasma membrane asymmetry (phosphatidylserine externalization), which is a marker of the earlier stages of apoptosis.
Apoptotic cell death was determined using FITC-Annexin V Apoptosis Detection Kit I (BD Bioscience, San Jose, CA, USA). Briefly, HL-60 cells were seeded in the 6-well plates (4.0 × 10^5 cells/well) in 2 mL of the culture medium and treated with […] for 24 h. Afterwards, the cells were collected by centrifugation (300× g, 5 min), washed with PBS, re-suspended in binding buffer and stained with FITC-conjugated annexin V and propidium iodide (PI) according to the manufacturer guidelines (15 min, at room temperature). The samples were analyzed by flow cytometry using CytoFLEX (Beckman Coulter, Inc., Brea, CA, USA). Data analysis was performed using Kaluza Analysis Software v2 (Beckman Coulter, Inc., Brea, CA, USA).

Structure (SMILES): C=C1C(=O)c2ccccc2N(S(=O)(=O)c2ccccc2)C1CC (centres unmarked) [Compound 5a, 2-Ethyl-3-methylidene-1-(phenylsulfonyl)-2,3-dihydroquinolin-4(1H)-one]
- BrdU positive cells (representative plot) (HL-60 cells [1]; 24 h, Figure 3a): 17.5%
- decrease in BrdU incorporation (HL-60 cells [1]; 24 h treatment then BrdU 8 h, vs control): 2.2 fold
- Q3: H2AX (pS139) and cleaved PARP negative cells (representative plot) (HL-60 cells [2]): 66.8%
- Q4: cleaved PARP positive, H2AX (pS139) negative cells (representative plot) (HL-60 cells [2]): 15.0%
- IC50 (HUVEC cells): 1.87 ± 0.02 µM
- IC50 (MCF-7 cells): 2.74 ± 0.07 µM
- early apoptotic cell fraction (Annexin V-positive) (HL-60 cells [3]): up to 13.9%
- late apoptotic cell fraction (Annexin V- and PI-positive) (HL-60 cells [3]): ≤ 13.7%
